# US10413505B1, “Pharmaceutical compositions and methods of using the same” (priority 2017, dated 2019)
# Legend:
# [1] = Example 3 plasma pharmacokinetics, normal hepatic function vs hepatic impairment; settings: single intranasal 160 mg cocaine HCl, plasma
# [2] = Example 2 plasma pharmacokinetics, normal renal function vs severe renal impairment; settings: for AUC(0-t) / AUC(0-inf) / Cmax / Tmax / half-life: both, human, 160 mg
# [3] = normal renal function, single intranasal 160 mg cocaine HCl, plasma
# [4] = severe renal impairment vs normal renal function, ANOVA
# [5] = severe renal impairment, single intranasal 160 mg cocaine HCl, plasma
smiles,measurement,setting,value
"COC(=O)[C@H]1[C@@H](OC(=O)c2ccccc2)C[C@@H]2CC[C@H]1N2C [Cocaine, cocaine, reference compound]",Tlast (Min),[1]; hepatic impairment,1680 min
same,Tmax (Max),[1]; hepatic impairment,3.00 h
same,Tmax (Min),[1]; hepatic impairment,7.02 min
same,t1/2 (Geometric mean),[1]; hepatic impairment,4.94 h
same,t1/2 (Max),[1]; hepatic impairment,9.86 h
same,t1/2 (Min),[1]; hepatic impairment,87.6 min
same,AUC0→t (Max),[1]; normal hepatic function,235 ng·h/mL
same,AUC0→t (Min),[1]; normal hepatic function,20.0 ng·h/mL
same,AUC0→∞ (Max),[1]; normal hepatic function,237 ng·h/mL
same,AUC0→∞ (Min),[1]; normal hepatic function,21.7 ng·h/mL
same,Clast (Geometric mean),[1]; normal hepatic function,0.188 ng/mL
same,Clast (Max),[1]; normal hepatic function,0.405 ng/mL
same,Clast (Mean),[1]; normal hepatic function,0.210 ng/mL
same,Clast (Median),[1]; normal hepatic function,0.160 ng/mL
same,Clast (Min),[1]; normal hepatic function,0.102 ng/mL
same,Cmax (Max),[1]; normal hepatic function,75.2 ng/mL
same,Cmax (Min),[1]; normal hepatic function,7.64 ng/mL
same,Tlast (Geometric mean),[1]; normal hepatic function,24.7 h
same,Tlast (Max),[1]; normal hepatic function,32.0 h
same,Tlast (Mean),[1]; normal hepatic function,26.0 h
same,Tlast (Median),[1]; normal hepatic function,28.0 h
same,Tlast (Min),[1]; normal hepatic function,720 min
same,t1/2 (Max),[1]; normal hepatic function,22.5 h
same,t1/2 (Min),[1]; normal hepatic function,110 min
same,"CL/F (Geometric Least Squares Mean, ANOVA)","[2]; Impaired renal function (severe), single intranasal 160 mg cocaine HCl",1333 L/h
same,AUC(0-t),"[2]; plasma, inhaled or intranasal, AUC0→t (Geometric mean), normal renal function, single intranasal 160 mg cocaine HCl",78.7 ng·h/mL
same,AUC(0-t),"[2]; plasma, inhaled or intranasal, AUC0→t (Geometric mean), severe renal impairment, single intranasal 160 mg cocaine HCl",106 ng·h/mL
same,AUC(0-t),"[2]; plasma, inhaled or intranasal, AUC0→t (Mean), normal renal function, single intranasal 160 mg cocaine HCl",83.5 ng·h/mL
same,AUC(0-t),"[2]; plasma, inhaled or intranasal, AUC0→t (Mean), severe renal impairment, single intranasal 160 mg cocaine HCl",119 ng·h/mL
same,AUC(0-t),"[2]; plasma, inhaled or intranasal, AUC0→t (Median), normal renal function, single intranasal 160 mg cocaine HCl",91.6 ng·h/mL
same,AUC(0-t),"[2]; plasma, inhaled or intranasal, AUC0→t (Median), severe renal impairment, single intranasal 160 mg cocaine HCl",109 ng·h/mL
same,AUC(0-inf),"[2]; plasma, inhaled or intranasal, AUC0→∞ (Geometric mean), normal renal function, single intranasal 160 mg cocaine HCl",80.5 ng·h/mL
same,AUC(0-inf),"[2]; plasma, inhaled or intranasal, AUC0→∞ (Geometric mean), severe renal impairment, single intranasal 160 mg cocaine HCl",107 ng·h/mL
same,AUC(0-inf),"[2]; plasma, inhaled or intranasal, AUC0→∞ (Mean), normal renal function, single intranasal 160 mg cocaine HCl",85 ng·h/mL
same,AUC(0-inf),"[2]; plasma, inhaled or intranasal, AUC0→∞ (Mean), severe renal impairment, single intranasal 160 mg cocaine HCl",120 ng·h/mL
same,AUC(0-inf),"[2]; plasma, inhaled or intranasal, AUC0→∞ (Median), normal renal function, single intranasal 160 mg cocaine HCl",92.9 ng·h/mL
same,AUC(0-inf),"[2]; plasma, inhaled or intranasal, AUC0→∞ (Median), severe renal impairment, single intranasal 160 mg cocaine HCl",110 ng·h/mL
same,AUC(0-t),"[2]; plasma, inhaled or intranasal, AUClast (Geometric Least Squares Mean, ANOVA), Impaired renal function (severe), single intranasal 160 mg cocaine HCl",106 ng·h/mL
same,AUC(0-t),"[2]; plasma, inhaled or intranasal, AUClast (Geometric Least Squares Mean, ANOVA), Normal renal function, single intranasal 160 mg cocaine HCl",78.7 ng·h/mL
same,Cmax,"[2]; plasma, inhaled or intranasal, Cmax (Geometric Least Squares Mean, ANOVA), Impaired renal function (severe), single intranasal 160 mg cocaine HCl",47.9 ng/mL
same,Cmax,"[2]; plasma, inhaled or intranasal, Cmax (Geometric Least Squares Mean, ANOVA), Normal renal function, single intranasal 160 mg cocaine HCl",35.9 ng/mL
same,Cmax,"[2]; plasma, inhaled or intranasal, Cmax (Geometric mean), normal renal function, single intranasal 160 mg cocaine HCl",35.9 ng/mL
same,Cmax,"[2]; plasma, inhaled or intranasal, Cmax (Geometric mean), severe renal impairment, single intranasal 160 mg cocaine HCl",47.9 ng/mL
same,Cmax,"[2]; plasma, inhaled or intranasal, Cmax (Mean), normal renal function, single intranasal 160 mg cocaine HCl",38.1 ng/mL
same,Cmax,"[2]; plasma, inhaled or intranasal, Cmax (Mean), severe renal impairment, single intranasal 160 mg cocaine HCl",57.8 ng/mL
same,Cmax,"[2]; plasma, inhaled or intranasal, Cmax (Median), normal renal function, single intranasal 160 mg cocaine HCl",37 ng/mL
same,Cmax,"[2]; plasma, inhaled or intranasal, Cmax (Median), severe renal impairment, single intranasal 160 mg cocaine HCl",55.4 ng/mL
same,Cmax,"[2]; plasma, inhaled or intranasal, Cmax, range observed, renally impaired patients, soaked absorbent articles on nasal mucous membranes",21.9 to 93.7 ng/mL
same,Tmax,"[2]; plasma, inhaled or intranasal, Tmax (Geometric mean), normal renal function, single intranasal 160 mg cocaine HCl",0.518 h
same,Tmax,"[2]; plasma, inhaled or intranasal, Tmax (Geometric mean), severe renal impairment, single intranasal 160 mg cocaine HCl",0.429 h
same,Tmax,"[2]; plasma, inhaled or intranasal, Tmax (Mean), normal renal function, single intranasal 160 mg cocaine HCl",0.583 h
same,Tmax,"[2]; plasma, inhaled or intranasal, Tmax (Mean), severe renal impairment, single intranasal 160 mg cocaine HCl",0.448 h
same,Tmax,"[2]; plasma, inhaled or intranasal, Tmax (Median), severe renal impairment, single intranasal 160 mg cocaine HCl",0.417 h
same,Tmax,"[2]; plasma, inhaled or intranasal, median Tmax, normal renal function, single intranasal 160 mg cocaine HCl",0.5 h
same,half-life,"[2]; plasma, inhaled or intranasal, t1/2 (Geometric mean), normal renal function, single intranasal 160 mg cocaine HCl",4.12 h
same,half-life,"[2]; plasma, inhaled or intranasal, t1/2 (Geometric mean), severe renal impairment, single intranasal 160 mg cocaine HCl",5.42 h
same,half-life,"[2]; plasma, inhaled or intranasal, t1/2 (Mean), normal renal function, single intranasal 160 mg cocaine HCl",5 h
same,half-life,"[2]; plasma, inhaled or intranasal, t1/2 (Mean), severe renal impairment, single intranasal 160 mg cocaine HCl",6.02 h
same,half-life,"[2]; plasma, inhaled or intranasal, t1/2 (Median), normal renal function, single intranasal 160 mg cocaine HCl",3.89 h
same,half-life,"[2]; plasma, inhaled or intranasal, t1/2 (Median), severe renal impairment, single intranasal 160 mg cocaine HCl",6.39 h
same,AUC(0-inf),"[2]; plasma, other: intranasal (drug-soaked pledgets in the nasal cavity), AUCinf, range observed, renally impaired patients",61.2 to 180 ng·h/mL
same,Tmax,"[2]; plasma, other: intranasal (drug-soaked pledgets in the nasal cavity), Tmax, range observed, renally impaired patients",0.301 to 0.595 h
same,"CL/F (Geometric Least Squares Mean, ANOVA)","[2]; normal renal function, single intranasal 160 mg cocaine HCl",1774 L/h
same,AUC0→t (Max),[2]; [3],109.9 ng·h/mL
same,AUC0→t (Min),[2]; [3],34.29 ng·h/mL
same,AUC0→∞ (Max),[2]; [3],110.3 ng·h/mL
same,AUC0→∞ (Min),[2]; [3],37.67 ng·h/mL
same,Clast (Geometric mean),[2]; [3],0.209 ng/mL
same,Clast (Max),[2]; [3],0.626 ng/mL
same,Clast (Mean),[2]; [3],0.263 ng/mL
same,Clast (Median),[2]; [3],0.154 ng/mL
same,Clast (Min),[2]; [3],0.114 ng/mL
same,Cmax (Max),[2]; [3],62.7 ng/mL
same,Cmax (Min),[2]; [3],16.7 ng/mL
same,Tlast (Geometric mean),[2]; [3],20.6 h
same,Tlast (Max),[2]; [3],32.0 h
same,Tlast (Mean),[2]; [3],22.5 h
same,Tlast (Median),[2]; [3],24.0 h
same,Tlast (Min),[2]; [3],720 min
same,Tmax (Max),[2]; [3],1.500 h
same,t1/2 (Max),[2]; [3],10.67 h
same,t1/2 (Min),[2]; [3],124 min
same,"CL/F, percent lower than in normal subjects",[2]; renal impairment vs normal renal function,approximately 25%
same,"plasma exposure (geometric mean Cmax, AUC), percent higher than in normal subjects",[2]; severe renal impairment vs normal renal function,approximately 33%
same,AUClast Ratio Impaired/Normal,[2]; [4],134.46%
same,CL/F Ratio Impaired/Normal,[2]; [4],75.13%
same,Cmax Ratio Impaired/Normal,[2]; [4],133.28%
same,AUC0→t (Max),[2]; [5],221 ng·h/mL
same,AUC0→t (Min),[2]; [5],43.0 ng·h/mL
same,AUC0→∞ (Max),[2]; [5],227 ng·h/mL
same,AUC0→∞ (Min),[2]; [5],44.2 ng·h/mL
same,Clast (Geometric mean),[2]; [5],0.159 ng/mL
same,Clast (Max),[2]; [5],0.432 ng/mL
same,Clast (Mean),[2]; [5],0.186 ng/mL
same,Clast (Median),[2]; [5],0.131 ng/mL
same,Clast (Min),[2]; [5],0.102 ng/mL
same,Cmax (Max),[2]; [5],131.0 ng/mL
same,Cmax (Min),[2]; [5],14.1 ng/mL
same,Tlast (Geometric mean),[2]; [5],26.9 h
same,Tlast (Max),[2]; [5],32.0 h
same,Tlast (Mean),[2]; [5],28.0 h
same,Tlast (Median),[2]; [5],32.0 h
same,Tlast (Min),[2]; [5],720 min
same,t1/2 (Max),[2]; [5],8.65 h
same,t1/2 (Min),[2]; [5],91.8 min
